pKi: −log10 of the molar value.

The assay addresses T1, GABA A α5 (Homo sapiens, UniProt P18507+P31644).
T1 construct: expressed in transfected cells; host or cells: HEK293 cells, transiently transfected; membranes prepared from cell pellets
The assay is described as follows: [3H]flumazenil competition binding, human GABA A α5β3γ2 receptors in HEK293 cell membranes. The conditions noted are these: human receptor α5β3γ2 transiently transfected in HEK293; 0.5 nM [3H]flumazenil; 1 hour at 4° C.; means of two determinations; read-out: hKi GABA A α5. In outline: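 Competition with [3H]flumazenil for binding to membranes of HEK293 cells transiently expressing human α5β3γ2, in Krebs-tris buffer pH 7.5. Incubated to equilibrium 1 h at 4 °C, filtered and scintillation-counted; Ki values are means of two determinations.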
For `Cc1onc(-c2ccc(F)cc2)c1/C=C/c1cc(C(=O)N2CCOCC2)[nH]n1` [Example 132, (5-{(E)-2-[3-(4-Fluoro-phenyl)-5-methyl-isoxazol-4-yl]vinyl}-2H-pyrazol-3-yl)-morpholin-4-yl-methanone], the pKi is 7.30.

On to `Cc1onc(-c2ccc(F)cc2)c1/C=C/c1cc(C(=O)NCC(F)(F)F)[nH]n1` [Example 133, 5-{(E)-2-[3-(4-Fluoro-phenyl)-5-methyl-isoxazol-4-yl]vinyl}-2H-pyrazole-3-carboxylic acid (2,2,2-trifluoro-ethyl)-amide], for which the pKi is 8.39.

For `Cc1onc(-c2ccc(F)cc2)c1/C=C/c1cc(C(=O)NC(C)C)[nH]n1` [Example 134, 5-{(E)-2-[3-(4-Fluoro-phenyl)-5-methyl-isoxazol-4-yl]-vinyl}-2H-pyrazole-3-carboxylic acid isopropylamide], the pKi was 8.28.

For the molecule `Cc1onc(-c2ccc(F)cc2)c1/C=C/c1cc(C(=O)N2CC3(COC3)C2)n(C)n1` [Example 135, (5-{(E)-2-[3-(4-Fluoro-phenyl)-5-methyl-isoxazol-4-yl]-vinyl}-2-methyl-2H-pyrazol-3-yl)-(2-oxa-6-aza-spiro[3.3]hept-6-yl)-methanone], the pKi is 8.62.

As for `Cc1onc(-c2ccc(F)cc2)c1/C=C/c1cc(C(=O)N2CC3(COC3)C2)[nH]n1` [Example 137, (5-{(E)-2-[3-(4-Fluoro-phenyl)-5-methyl-isoxazol-4-yl]vinyl}-2H-pyrazol-3-yl)-(2-oxa-6-aza-spiro[3.3]hept-6-yl)-methanone], the pKi was 8.85.

For the molecule `Cc1onc(-c2ccc(F)cc2)c1/C=C/c1cc(C(=O)NC(C)(C)CO)[nH]n1` [Example 138, 5-{(E)-2-[3-(4-Fluoro-phenyl)-5-methyl-isoxazol-4-yl]vinyl}-2H-pyrazole-3-carboxylic acid (2-hydroxy-1,1-dimethyl-ethyl)-amide], the pKi was 7.96.

Regarding `Cc1onc(-c2ccc(F)cc2)c1/C=C/c1cc(C(=O)NC(C)CO)[nH]n1` (stereo not shown) [Example 139, 5-{(E)-2-[3-(4-Fluoro-phenyl)-5-methyl-isoxazol-4-yl]-vinyl}-2H-pyrazole-3-carboxylic acid (2-hydroxy-1-methyl-ethyl)-amide], the pKi was 8.52.

Regarding `Cc1onc(-c2ccc(F)cc2)c1/C=C/c1cc(C(=O)NCC(C)(C)O)[nH]n1` [Example 140, 5-{(E)-2-[3-(4-Fluoro-phenyl)-5-methyl-isoxazol-4-yl]vinyl}-2H-pyrazole-3-carboxylic acid (2-hydroxy-2-methyl-propyl)-amide], the pKi is 8.42.

On to `CCNC(=O)c1cc(/C=C/c2c(-c3ccc(F)cc3)noc2C)n[nH]1` [Example 141, 5-{(E)-2-[3-(4-Fluoro-phenyl)-5-methyl-isoxazol-4-yl]vinyl}-2H-pyrazole-3-carboxylic acid ethylamide], for which the pKi was 8.09.

For `Cc1onc(-c2ccc(F)cc2)c1/C=C/c1cc(C(N)=O)[nH]n1` [Example 142, 5-{(E)-2-[3-(4-Fluoro-phenyl)-5-methyl-isoxazol-4-yl]vinyl}-2H-pyrazole-3-carboxylic acid amide], the pKi is 8.32.

Turning to `Cc1onc(-c2ccc(F)cc2)c1/C=C/c1cc(C(=O)NC(C)(C)CO)n(C)n1` [Example 143, 5-{(E)-2-[3-(4-Fluoro-phenyl)-5-methyl-isoxazol-4-yl]vinyl}-2-methyl-2H-pyrazole-3-carboxylic acid (2-hydroxy-1,1-dimethyl-ethyl)-amide], the pKi is 8.13.

Turning to `Cc1onc(-c2ccc(F)cc2)c1CNc1cc(C(=O)NCC(C)(C)O)n(C)n1` [Example 144, 5-{[3-(4-Fluoro-phenyl)-5-methyl-isoxazol-4-ylmethyl]-amino}-2-methyl-2H-pyrazole-3-carboxylic acid (2-hydroxy-2-methyl-propyl)-amide], the pKi is 7.53.

Take `Cc1onc(-c2ccc(F)cc2)c1CNc1cc(C(N)=O)n(C)n1` [Example 145, 5-{[3-(4-Fluoro-phenyl)-5-methyl-isoxazol-4-ylmethyl]-amino}-2-methyl-2H-pyrazole-3-carboxylic acid amide]: the pKi is 7.16.

For the molecule `Cc1onc(-c2ccc(F)cc2)c1CNc1cc(C(=O)NCC(F)(F)F)n(C)n1` [Example 146, 5-{[3-(4-Fluoro-phenyl)-5-methyl-isoxazol-4-ylmethyl]-amino}-2-methyl-2H-pyrazole-3-carboxylic acid (2,2,2-trifluoro-ethyl)-amide], the pKi is 7.82.

Take `Cc1onc(-c2ccc(F)cc2)c1CNc1cc(C(=O)NC2CCOCC2)n(C)n1` [Example 147, 5-{[3-(4-Fluoro-phenyl)-5-methyl-isoxazol-4-ylmethyl]-amino}-2-methyl-2H-pyrazole-3-carboxylic acid (tetrahydro-pyran-4-yl)-amide]: the pKi is 8.33.

Take `Cc1onc(-c2ccc(F)cc2)c1CNc1cc(C(=O)NC2(C)COC2)n(C)n1` [Example 148, 5-{[3-(4-Fluoro-phenyl)-5-methyl-isoxazol-4-ylmethyl]-amino}-2-methyl-2H-pyrazole-3-carboxylic acid (3-methyl-oxetan-3-yl)-amide]: the pKi was 8.27.

On to `Cc1onc(-c2ccc(F)cc2)c1CNc1cc(C(=O)N2CC3(COC3)C2)n(C)n1` [Example 149, (5-{[3-(4-Fluoro-phenyl)-5-methyl-isoxazol-4-ylmethyl]-amino}-2-methyl-2H-pyrazol-3-yl)-(2-oxa-6-aza-spiro[3.3]hept-6-yl)-methanone], for which the pKi was 7.17.

Regarding `Cc1onc(-c2ccc(F)cc2)c1CNc1cc(C(=O)NC(C)CO)n(C)n1` (stereo not shown) [Example 150, 5-{[3-(4-Fluoro-phenyl)-5-methyl-isoxazol-4-ylmethyl]-amino}-2-methyl-2H-pyrazole-3-carboxylic acid (2-hydroxy-1-methyl-ethyl)-amide], the pKi is 7.58.

As for `Cc1onc(-c2ccc(F)cc2)c1CNc1cc(C(=O)NC(C)C)n(C)n1` [Example 151, 5-{[3-(4-Fluoro-phenyl)-5-methyl-isoxazol-4-ylmethyl]-amino}-2-methyl-2H-pyrazole-3-carboxylic acid isopropylamide], the pKi is 7.87.

In the case of `Cc1onc(-c2ccc(F)cc2)c1CNc1cc(C(=O)NCC(C)(C)O)[nH]n1` [Example 152, 5-{[3-(4-Fluoro-phenyl)-5-methyl-isoxazol-4-ylmethyl]-amino}-2H-pyrazole-3-carboxylic acid (2-hydroxy-2-methyl-propyl)-amide], the pKi was 7.68.

Consider `Cc1onc(-c2ccc(F)cc2)c1CNc1cc(C(N)=O)[nH]n1` [Example 153, 5-{[3-(4-Fluoro-phenyl)-5-methyl-isoxazol-4-ylmethyl]-amino}-2H-pyrazole-3-carboxylic acid amide], for which the pKi is 7.36.

In the case of `Cc1onc(-c2ccc(F)cc2)c1CNc1cc(C(=O)NC(C)C)[nH]n1` [Example 154, 5-{[3-(4-Fluoro-phenyl)-5-methyl-isoxazol-4-ylmethyl]-amino}-2H-pyrazole-3-carboxylic acid isopropylamide], the pKi is 7.89.

Turning to `CCNC(=O)c1cc(NCc2c(-c3ccc(F)cc3)noc2C)n[nH]1` [Example 155, 5-{[3-(4-Fluoro-phenyl)-5-methyl-isoxazol-4-ylmethyl]-amino}-2H-pyrazole-3-carboxylic acid ethylamide], the pKi is 7.24.

`Cc1onc(-c2ccc(F)cc2)c1CNc1cc(C(=O)NC2CCOCC2)[nH]n1` [Example 156, 5-{[3-(4-Fluoro-phenyl)-5-methyl-isoxazol-4-ylmethyl]-amino}-2H-pyrazole-3-carboxylic acid (tetrahydro-pyran-4-yl)-amide]: the pKi was 8.41.

On to `Cc1onc(-c2ccc(F)cc2)c1CNc1cc(C(=O)NC(C)CO)[nH]n1` (stereo not shown) [Example 157, 5-{[3-(4-Fluoro-phenyl)-5-methyl-isoxazol-4-ylmethyl]-amino}-2H-pyrazole-3-carboxylic acid (2-hydroxy-1-methyl-ethyl)-amide], for which the pKi was 7.29.

For the molecule `Cc1onc(-c2ccc(F)cc2)c1CNc1cc(C(=O)N2CC3(COC3)C2)[nH]n1` [Example 158, (5-{[3-(4-Fluoro-phenyl)-5-methyl-isoxazol-4-ylmethyl]-amino}-2H-pyrazol-3-yl)-(2-oxa-6-aza-spiro[3.3]hept-6-yl)-methanone], the pKi is 7.66.

Regarding `Cc1onc(-c2ccccn2)c1CNc1cc(C(=O)NC(C)C)n(C)n1` [Example 159, N-isopropyl-1-methyl-3-((5-methyl-3-(pyridin-2-yl)isoxazol-4-yl)methylamino)-1H-pyrazole-5-carboxamide], the pKi is 7.40.

On to `Cc1onc(-c2ccccn2)c1CNc1cc(C(=O)NC2CCOCC2)n(C)n1` [Example 160, 2-Methyl-5-[(5-methyl-3-pyridin-2-yl-isoxazol-4-ylmethyl)-amino]-2H-pyrazole-3-carboxylic acid (tetrahydro-pyran-4-yl)-amide], for which the pKi was 7.60.

Take `Cc1onc(-c2ccccn2)c1CNc1cc(C(=O)NN2CCOCC2)n(C)n1` [Example 161, 1-Methyl-3-((5-methyl-3-(pyridin-2-yl)isoxazol-4-yl)methylamino)-N-morpholino-1H-pyrazole-5-carboxamide]: the pKi is 7.71.

Turning to `Cc1onc(-c2ccccn2)c1CNc1cc(C(=O)NC2(C)COC2)n(C)n1` [Example 162, 1-Methyl-3-((5-methyl-3-(pyridin-2-yl)isoxazol-4-yl)methylamino)-N-(3-methyloxetan-3-yl)-1H-pyrazole-5-carboxamide], the pKi was 7.52.

As for `Cc1onc(-c2ccc(F)cn2)c1CNc1cc(C(=O)NC(C)C)n(C)n1` [Example 163, 3-((3-(5-Fluoropyridin-2-yl)-5-methylisoxazol-4-yl)methylamino)-N-isopropyl-1-methyl-1H-pyrazole-5-carboxamide], the pKi is 7.00.
